In patent US20150368195A1, “INDOLINE COMPOUNDS FOR TREATMENT AND/OR PREVENTION OF INFLAMMATION DISEASES” (Taipei Medical University, priority 2014, published 2015):

Tests used:
[1] = system: tumor necrosis factor-α (TNF-α); assay: LPS-induced TNF-α production in RAW 264.7 macrophages; settings: Mus musculus, RAW264.7, read-out: IC50 TNF-α
[2] = system: IL-6; assay: IL-1β-induced IL-6 production by RA-FLS; type: cell-based; settings: MPT0G009 0.1, 1, 10 μM; SAHA 0.3, 3, 30 μM; IL-1β 10 ng/mL 24 h
Procedure: (FIG. 1A) Structure of MPT0G009. […] Results in (FIGS. 1B-E) and (FIG. 1G) are means±SEM's for three independent experiments, *p<0.05 and **p<0.01 compared with no added inhibitor.
Furthermore, the anti-inflammatory effects of MPT0G009 was evaluated. […] These supernatants were then assayed for PGE2, NO, and IL-6.

COc1ccc(S(=O)(=O)N2CCc3cc(C=CC(=O)NO)ccc32)cc1 [Compound 9, 3-[1-(4-methoxybenzenesulfonyl)-2,3-dihydro-1H-indol-5-yl]-N-Hydroxyacrylamide]
IC50 [1]: 520 nM
IL-6 production by RA-FLS [2]: inhibited
